Results from patent US20160038482A1 (CHANRX CORPORATION, priority 2013, published 2016).
Where two headings read alike, the source gives them in different places.

Experiments:
[1] = Example 1: plasma concentrations of vanoxerine and metabolites after a 300 mg dose; format: in vivo, human; conditions: low concentration group, any time point
Description: Each patient gave samples before administration of their dose, and then again at nine further time points, 30 minutes after administration, 1, 2, 3, 4, 6, 8, 12, and 24 hours post administration.

[2] = pharmacokinetic parameters from tests in dogs; format: in vivo; conditions: dog, plasma
From the text: Vanoxerine is primarily eliminated from the body in urine, bile, and feces. Indeed, a substantial amount of the drug is expelled, unabsorbed into the feces. […] However, the long half-life of the drug may actually be utilized to minimize the continuous or regular dosing of the drug.

cardiac arrhythmia = format: in vivo, human; conditions: second patient, supraventricular tachycardia, 2 x 200 mg, after first dose
[3] = Example 3: daily doses for 11 consecutive days, PK and hemodynamics; format: in vivo, human; conditions: for half-life / Cmax: human, plasma, 11 days; for half-life: read-out: PK Data (Mean +/− SD) T1/2 (converted); for Cmax: read-out: PK Data (Mean +/− SD) CMax
[4] = Example 4: daily doses for 14 days in healthy patients; format: in vivo, human
Description: A standardized meal was served 15 minutes prior to each dosing.

[5] = Example 5: daily doses for 7 days; format: in vivo, human
[6] = system: recent onset symptomatic AF/AFL; assay: Example 6: conversion of recent onset AF/AFL, placebo-controlled double-blind; format: in vivo, human; conditions: for Conversion of Atrial Flutter, Conversion, %: pure atrial flutter N=4, any time within 24 hours; for conversion: all doses
Description: The vanoxerine or identical appearing placebo was randomly assigned and administered in a double-blinded fashion. Definition of “pure” atrial flutter: only Atrial Flutter (no AF) seen at -30, -15, and 0 time points. Conversion at any time within 24 hours.

[7] = Example 6: adverse events; format: in vivo, human
From the text: The vanoxerine or identical appearing placebo was randomly assigned and administered in a double-blinded fashion.

[8] = multiple daily dosing: hemodynamic effects; format: in vivo, human
From the text: However, control and prevention of events of cardiac arrhythmia are important to these patients to prevent future re-occurrences and the deleterious effects and morbidity.

[9] = healthy subjects, cited from earlier work

plasma levels (highest reached) [1]: ~40 ng/mL
Tmax ([2]; oral): ~3 h
bioavailability ([2]; oral, read-out: systemic bioavailability): 23%
half-life ([2]; read-out: T1/2 (elimination from the plasma) (converted)): 22 h
plasma levels detectability ([3]; 25 mg daily): not detectable after 8 hours
plasma levels detectability ([3]; 50, 75, and 100 mg daily): detectable at 24 hours
time to steady state ([3]; 50, 75, and 100 mg daily): ≤ 8 days
PK linearity ([3]; across 50, 75 and 100 mg doses): linear and dose proportional
half-life ([3]; 50 mg daily): 49.4 h
Cmax ([3]; 75 mg daily): 27.4 ng/mL
half-life ([3]; 75 mg daily): 52.5 h
Cmax ([3]; 100 mg daily): 40.2 ng/mL
half-life ([3]; 100 mg daily): 15.4 h
Cmax, ss, and AUC0-24ss inter-subject variability ([3]; steady state): 55-85%
half-life of the drug ([3]; when daily doses are given): increased half-life
time to steady state serum levels ([4]; 25, 75, and 125 mg daily for 14 days): 9 to 11 days
time to steady state levels ([5]; 50, 100, and 150 mg daily, all patients): within one week
SMILES: Fc1ccc(C(OCCN2CCN(CCCc3ccccc3)CC2)c2ccc(F)cc2)cc1 [Vanoxerine, 1-[2-[bis(4-fluorophenyl)methoxy]ethyl]-4-(3-phenylpropyl)piperazine]
time of conversion to normal sinus rhythm (cardiac arrhythmia): about 6 hours
heart rate and systolic blood pressure ([3]; 75 and 100 mg daily doses): increased slightly in most subjects
adverse events ([4]; 25, 75, and 125 mg daily for 14 days, healthy patients, after standardized meal): No significant adverse events
steady state serum levels, dose proportionality ([4]; higher doses compared with the lower doses): disproportionately and statistically greater levels at higher doses
systolic blood pressure and heart rate ([5]; 100 mg daily for 7 days): increases in systolic blood pressure and heart rate were seen
systolic blood pressure and heart rate ([5]; 150 mg daily for 7 days): increases in systolic blood pressure and in heart rate
Percent conversion ([6]; 200 mg (22), 0-4 hr): 18%
Percent conversion ([6]; 200 mg (22), 0-8 hr): 45%
Percent conversion ([6]; 200 mg (22), 0-24 hr): 59%
improvement of conversion (percent increase in conversion over placebo) ([6]; 200 mg, 0-4 hours): 38%
improvement of conversion (percent increase in conversion over placebo) ([6]; 200 mg, 0-8 hours): 96%
improvement of conversion (percent increase in conversion over placebo) ([6]; 200 mg, 0-24 hours): 55%
Conversion of Atrial Flutter, Conversion, % ([6]; 200 mg): 50%
Percent conversion ([6]; 300 mg (25), 0-4 hr): 40%
Percent conversion ([6]; 300 mg (25), 0-8 hr): 52%
Percent conversion ([6]; 300 mg (25), 0-24 hr): 64%
improvement of conversion (percent increase in conversion over placebo) ([6]; 300 mg, 0-4 hours): 207%
improvement of conversion (percent increase in conversion over placebo) ([6]; 300 mg, 0-8 hours): 126%
improvement of conversion (percent increase in conversion over placebo) ([6]; 300 mg, 0-24 hours): 68%
Conversion of Atrial Flutter, Conversion, % ([6]; 300 mg): 75%
Percent conversion ([6]; 400 mg (25), 0-4 hr): 52%
Percent conversion ([6]; 400 mg (25), 0-8 hr): 76%
Percent conversion ([6]; 400 mg (25), 0-24 hr): 84%
improvement of conversion (percent increase in conversion over placebo) ([6]; 400 mg, 0-4 hours): 300%
improvement of conversion (percent increase in conversion over placebo) ([6]; 400 mg, 0-8 hours): 230%
improvement of conversion (percent increase in conversion over placebo) ([6]; 400 mg, 0-24 hours): 121%
Conversion of Atrial Flutter, Conversion, % ([6]; 400 mg): 75%
conversion ([6]; at 12 hours): greater than 50%
conversion ([6]; at about 7 hours): greater than 40%
conversion ([6]; at about 16 hours): ~60%
conversion to sinus rhythm of recent onset symptomatic AF/AFL, dose dependence ([6]; doses of 200, 300 and 400 mg): highly statistically significant dose dependent increase
Adverse events: number of AEs reported ([7]; 200 mg (22)): 8 AEs
Adverse events: number of SAEs ([7]; 200 mg (22)): 1 SAE
Adverse events: subjects reporting, N (%) ([7]; 200 mg (22)): 4 (18%) subjects
Adverse events: number of AEs reported ([7]; 300 mg (25)): 12 AEs
Adverse events: subjects reporting, N (%) ([7]; 300 mg (25)): 7 (28%) subjects
Adverse events: number of AEs reported ([7]; 400 mg (25)): 23 AEs
Adverse events: number of SAEs ([7]; 400 mg (25)): 1 SAE
Adverse events: subjects reporting, N (%) ([7]; 400 mg (25)): 10 (40%) subjects
1:1 AFL post dose ([7]; 200, 300 and 400 mg): No 1:1 AFL seen post dose in any subject
proarrhythmia ([7]; 200, 300 and 400 mg): absence of proarrhythmia
tolerability ([7]; 200, 300 and 400 mg): well tolerated at all doses
heart rate and systolic blood pressure ([8]; daily use over 7, 10, and 14 days, 75, 100, 125, and 150 mg a day): increased heart rate and systolic blood pressure
heart rate and systolic blood pressure ([8]; multiple dosing, several subjects): dose-related increases in heart rate and systolic blood pressure
side-effects ([9]; daily repetitive dose of 50 mg): no side-effects should be expected
side-effects ([9]; higher doses): concentration difficulties, increase systolic blood pressure, asthenia, and a feeling of drug influence
